This note sets out measurements from PubChem BioAssay AID1259407 (Chemical Carcinogenesis Research Information System (CCRIS), 2018).

The data set deals with CCRIS mutagenicity, Ames/micronucleus/aberration tests. As to the kind of experiment: CCRIS mutagenicity studies.
[1] abbreviates: Test System: AMES SALMONELLA TYPHIMURIUM, Strain/Indicator: TA98, Metabolic Activation: NONE, Method: STANDARD PLATE.
The mark [2] stands for this setting: Test System: AMES SALMONELLA TYPHIMURIUM, Strain/Indicator: TA100, Metabolic Activation: NONE, Method: STANDARD PLATE.
[3] abbreviates: Test System: AMES SALMONELLA TYPHIMURIUM, Strain/Indicator: TA1535, Metabolic Activation: NONE, Method: STANDARD PLATE.
The mark [4] stands for this setting: Test System: AMES SALMONELLA TYPHIMURIUM, Strain/Indicator: TA100, Metabolic Activation: RAT, LIVER, S-9, AROCLOR 1254, Method: STANDARD PLATE.
The mark [5] stands for this setting: Test System: AMES SALMONELLA TYPHIMURIUM, Strain/Indicator: TA1537, Metabolic Activation: NONE, Method: STANDARD PLATE.
[6] abbreviates: Test System: AMES SALMONELLA TYPHIMURIUM, Strain/Indicator: TA98, Metabolic Activation: NONE, Method: PREINCUBATION
[7] abbreviates: Test System: AMES SALMONELLA TYPHIMURIUM, Strain/Indicator: TA100, Metabolic Activation: NONE, Method: PREINCUBATION

Structures are written as SMILES. Calls of active or inactive are those of the source. How the calls were made is not given here.

`CN(C)c1ccc(C(c2ccccc2)c2ccc(N(C)C)cc2)cc1`: the mutagenic call (End Point: IN VIVO MICRONUCLEUS, Test System: PERIPHERAL BLOOD ERYTHROCYTES, Species: MOUSE, Strain/Sex: BIG BLUE B6C3F1/FEMALE, Route: DIET) is “inactive; negative”; the mutagenic call (Test System: AMES SALMONELLA TYPHIMURIUM, Strain/Indicator: TA97A, Metabolic Activation: NONE, Method: STANDARD PLATE) was “inactive; negative”; the mutagenic call (Test System: AMES SALMONELLA TYPHIMURIUM, Strain/Indicator: TA97A, Metabolic Activation: RAT LIVER S-9, 3-METHYLCHOLANTHRENE, PHENOBARBITAL, Method: STANDARD PLATE) was “inactive; negative”; the mutagenic call under setting [1] was “inactive; negative”; the mutagenic call (Test System: AMES SALMONELLA TYPHIMURIUM, Strain/Indicator: TA98, Metabolic Activation: RAT LIVER S-9, 3-METHYLCHOLANTHRENE, PHENOBARBITAL, Method: STANDARD PLATE) was “inactive; negative”; the mutagenic call under setting [2] is “inactive; negative”. In addition, the mutagenic call by setting is: (Test System: AMES SALMONELLA TYPHIMURIUM, Strain/Indicator: TA100, Metabolic Activation: RAT LIVER S-9, 3-METHYLCHOLANTHRENE, PHENOBARBITAL, Method: STANDARD PLATE) “inactive; negative”; (Test System: AMES SALMONELLA TYPHIMURIUM, Strain/Indicator: TA102, Metabolic Activation: NONE, Method: STANDARD PLATE) “inactive; negative”; (Test System: AMES SALMONELLA TYPHIMURIUM, Strain/Indicator: TA102, Metabolic Activation: RAT LIVER S-9, 3-METHYLCHOLANTHRENE, PHENOBARBITAL, Method: STANDARD PLATE) “inactive; negative”; (Test System: CHO/HGPRT, Strain/Indicator: CHO-K1, Metabolic Activation: NONE, Method: STANDARD PLATE) “inactive; negative”; (Test System: CHO/HGPRT, Strain/Indicator: CHO-K1, Metabolic Activation: RAT LIVER S-9, 3-METHYLCHOLANTHRENE, PHENOBARBITAL, Method: STANDARD PLATE) “inactive; negative”.

As for `N[C@@H](CCC(=O)N[C@@H](CSC(=O)NCCCl)C(=O)NCC(=O)O)C(=O)O`, the mutagenic call under setting [3] was “active; positive”.

`O=C(C(Cl)Cl)C(Cl)(Cl)Cl`: the mutagenic call reads like this: under setting [1], “active; positive”; under setting [2], “active; positive”.

Regarding `O=[N+]([O-])O[C@@H]1CO[C@H]2[C@@H]1OC[C@@H]2O`, the mutagenic call reads like this: under setting [1], “inactive; negative”; (Test System: AMES SALMONELLA TYPHIMURIUM, Strain/Indicator: TA98, Metabolic Activation: RAT, LIVER, S-9, AROCLOR 1254, Method: STANDARD PLATE) “inactive; negative”; under setting [2], “inactive; negative”; under setting [4], “inactive; negative”; under setting [3], “inactive; negative”; (Test System: AMES SALMONELLA TYPHIMURIUM, Strain/Indicator: TA1535, Metabolic Activation: RAT, LIVER, S-9, AROCLOR 1254, Method: STANDARD PLATE) “inactive; negative”. For the same molecule, the mutagenic call was “inactive; negative” under setting [5] and “inactive; negative” (Test System: AMES SALMONELLA TYPHIMURIUM, Strain/Indicator: TA1537, Metabolic Activation: RAT, LIVER, S-9, AROCLOR 1254, Method: STANDARD PLATE).

Consider `O=C/C(Br)=C(/Br)C(=O)O`, for which the mutagenic call was “inactive; negative” (End Point: In vitro micronucleus, Test System: Human lymphocytes, Metabolic Activation: None) and “active; positive” under setting [2].

As to `Cc1ccc(-c2nc3n(c2[N+](=O)[O-])CCS3)cc1`, the mutagenic call reads like this: under setting [1], “inactive; negative”; under setting [2], “active; positive”; under setting [3], “inactive; negative”; under setting [5], “inactive; negative”; (Test System: AMES SALMONELLA TYPHIMURIUM, Strain/Indicator: TA1538, Metabolic Activation: NONE, Method: STANDARD PLATE) “inactive; negative”.

In the case of `COP1(=S)OCc2ccccc2O1` (centres undefined), the mutagenic call was “active; positive” under setting [2] and “active; positive” (Test System: AMES SALMONELLA TYPHIMURIUM, Strain/Indicator: TA100, Metabolic Activation: S-9 MIX, Method: STANDARD PLATE).

Turning to `CCCCOC(=O)c1ccccc1C(=O)OCCCC`, the mutagenic call runs as follows: (Test System: AMES SALMONELLA TYPHIMURIUM, Strain/Indicator: TA98, Metabolic Activation: HAMSTER, LIVER, S-9, AROCLOR 1254 (10%), Method: PREINCUBATION) “inactive; negative”; under setting [6], “inactive; negative”; (Test System: AMES SALMONELLA TYPHIMURIUM, Strain/Indicator: TA98, Metabolic Activation: RAT, LIVER, S-9, AROCLOR 1254 (10%), Method: PREINCUBATION) “inactive; negative”; (Test System: AMES SALMONELLA TYPHIMURIUM, Strain/Indicator: TA100, Metabolic Activation: HAMSTER, LIVER, S-9, AROCLOR 1254 (10%), Method: PREINCUBATION) “inactive; negative”; under setting [7], “inactive; negative”; under setting [2], “active; positive”. In addition, the mutagenic call reads like this: (Test System: AMES SALMONELLA TYPHIMURIUM, Strain/Indicator: TA100, Metabolic Activation: RAT, LIVER, S-9, AROCLOR 1254 (10%), Method: PREINCUBATION) “inactive; negative”; (Test System: AMES SALMONELLA TYPHIMURIUM, Strain/Indicator: TA100, Metabolic Activation: S-9, Method: STANDARD PLATE) “inactive; negative”; (Test System: AMES SALMONELLA TYPHIMURIUM, Strain/Indicator: TA1535, Metabolic Activation: HAMSTER, LIVER, S-9, AROCLOR 1254 (10%), Method: PREINCUBATION) “inactive; negative”; (Test System: AMES SALMONELLA TYPHIMURIUM, Strain/Indicator: TA1535, Metabolic Activation: NONE, Method: PREINCUBATION) “inactive; negative”; under setting [3], “inactive; negative”; (Test System: AMES SALMONELLA TYPHIMURIUM, Strain/Indicator: TA1535, Metabolic Activation: RAT, LIVER, S-9, AROCLOR 1254 (10%), Method: PREINCUBATION) “inactive; negative”. The mutagenic call runs as follows: (Test System: AMES SALMONELLA TYPHIMURIUM, Strain/Indicator: TA1535, Metabolic Activation: S-9, Method: STANDARD PLATE) “inactive; negative”; (Test System: AMES SALMONELLA TYPHIMURIUM, Strain/Indicator: TA1537, Metabolic Activation: HAMSTER, LIVER, S-9, AROCLOR 1254 (10%), Method: PREINCUBATION) “inactive; negative”; (Test System: AMES SALMONELLA TYPHIMURIUM, Strain/Indicator: TA1537, Metabolic Activation: NONE, Method: PREINCUBATION) “inactive; negative”; (Test System: AMES SALMONELLA TYPHIMURIUM, Strain/Indicator: TA1537, Metabolic Activation: RAT, LIVER, S-9, AROCLOR 1254 (10%), Method: PREINCUBATION) “inactive; negative”; (Test System: MOUSE LYMPHOMA, Strain/Indicator: L5178Y (TK+/TK-), Metabolic Activation: NONE, Method: SUSPENSION/PLATE) “inactive; negative”; (Test System: MOUSE LYMPHOMA, Strain/Indicator: L5178Y (TK+/TK-), Metabolic Activation: RAT LIVER S-9, Method: SUSPENSION/PLATE) “active; positive”.

As for `O[C@H]1[C@@H]2O[C@@H]2c2c(ccc3cc4c(ccc5ccccc54)nc23)[C@@H]1O`, the mutagenic call under setting [6] was “active; positive”; the mutagenic call (Test System: AMES SALMONELLA TYPHIMURIUM, Strain/Indicator: TA98, Metabolic Activation: RAT, LIVER, AROCLOR 1254, NADPH GENERATING SYSTEM, Method: STANDARD PLATE) was “active; positive”; the mutagenic call under setting [7] is “active; positive”; the mutagenic call (Test System: AMES SALMONELLA TYPHIMURIUM, Strain/Indicator: TA100, Metabolic Activation: RAT, LIVER, AROCLOR 1254, NADPH GENERATING SYSTEM, Method: STANDARD PLATE) was “active; positive”; the mutagenic call (Test System: CHINESE HAMSTER V-79, Strain/Indicator: V-79/8-AZAGUANINE, Metabolic Activation: NONE) is “active; positive”; the mutagenic call (Test System: CHINESE HAMSTER V-79, Strain/Indicator: V-79/8-AZAGUANINE, Method: STANDARD PLATE) is “active; positive”.

In the case of `c1ccc2c3c(ccc2c1)-c1cccc2cccc-3c12`, the mutagenic call is, setting by setting: (Test System: AMES SALMONELLA TYPHIMURIUM, Strain/Indicator: TA97A, Metabolic Activation: NONE, Method: PREINCUBATION) “inactive; negative”; under setting [6], “inactive; negative”; under setting [7], “inactive; negative”; under setting [4], “active; positive”.
